Measured values published in ChEMBL document CHEMBL1201862, “PubChem BioAssay data set” (2004).
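Exposure lasted 48 hours, with cells grown in 96-well plates and compounds tested at five concentrations. At the GI50, growth is halved.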 Activity calls are given as the source filed them. Cut-off read from the data, not from the text of the source: active = GI50 up to about 1.1 µM and inactive = higher.

Experiments:
Assay in all cases: inhibition of tumour cell growth, NCI panel, 48 h
786-0 = system: 786-0
EKVX = system: EKVX
HCT-15 = system: HCT-15
HL-60 = system: HL-60
HOP-92 = system: HOP-92
HT-29 = system: HT-29
LOX IMVI = system: LOX IMVI
NCI-H460 = system: NCI-H460
OVCAR-3 = system: OVCAR-3
RXF 393 = system: RXF 393
SF-268 = system: SF-268
SK-OV-3 = system: SK-OV-3
SN12C = system: SN12C
SNB-19 = system: SNB-19
UACC-62 = system: UACC-62
UO-31 = system: UO-31
CAKI-1 = system: CAKI-1
SR = system: SR

Row | SMILES | GI50 (786-0) | GI50 (EKVX) | GI50 (HCT-15) | GI50 (HL-60) | GI50 (HOP-92) | GI50 (HT-29) | GI50 (LOX IMVI) | GI50 (NCI-H460) | GI50 (OVCAR-3) | GI50 (RXF 393) | GI50 (SF-268) | GI50 (SK-OV-3) | GI50 (SN12C) | GI50 (SNB-19) | GI50 (UACC-62) | GI50 (UO-31) | GI50 (CAKI-1) | GI50 (SR)
1 | CCCCCCCCCCCCCCCC(=O)NCC(OCC)OCC | > 100 µM (inactive) | > 100 µM (inactive) | > 100 µM | > 100 µM (inactive) | > 100 µM (inactive) | > 100 µM (inactive) | > 100 µM (inactive) | > 100 µM (inactive) | > 100 µM (inactive) | > 100 µM (inactive) | > 100 µM (inactive) | > 100 µM (inactive) | > 100 µM (inactive) | > 100 µM (inactive) | > 100 µM (inactive) | > 100 µM (inactive) |  | 
2 | CC(=O)OC(C)(C)/C=C/C(=O)[C@](C)(O)[C@H]1[C@H](O)C[C@@]2(C)[C@@H]3CC=C4[C@@H](C[C@H](O)[C@H](O)C4(C)C)[C@]3(C)C(=O)C[C@]12C | 0.24 µM (active) | 0.601 µM (active) | 0.294 µM | 0.243 µM (active) | 0.22 µM (active) | 0.302 µM (active) | 0.303 µM (active) | 1.07 µM (active) | 0.314 µM (active) | 0.383 µM (active) | 0.397 µM (active) | 2.79 µM (inactive) | 0.401 µM (active) | 0.7 µM (active) | 0.48 µM (active) | 0.839 µM (active) | 0.385 µM (active) | 0.224 µM (active)
3 | CC(C)(C)N/N=C(\C(=O)Nc1nnc(S)[nH]1)C1C(=O)Nc2ccccc2[S+]1[O-] (configuration not stated) | > 100 µM (inactive) | > 100 µM (inactive) | > 100 µM | > 100 µM (inactive) |  | > 100 µM (inactive) | > 100 µM (inactive) | > 100 µM (inactive) | > 100 µM (inactive) | > 100 µM (inactive) | > 100 µM (inactive) | > 100 µM (inactive) | > 100 µM (inactive) | > 100 µM (inactive) | > 100 µM (inactive) | > 100 µM (inactive) | > 100 µM (inactive) | > 100 µM (inactive)
4 | N#C/N=C1\NC(Cc2ccccc2)C(=O)N1CCc1c[nH]c2ccccc12 (configuration not stated) | 18.5 µM (inactive) | 22.4 µM (inactive) | 29.4 µM | 22.1 µM (inactive) |  | 34.9 µM (inactive) | 35.2 µM (inactive) |  | 33.6 µM (inactive) | > 10 µM (inactive) | 15.7 µM (inactive) | 26.3 µM (inactive) | 29.9 µM (inactive) | 37 µM (inactive) | 23.2 µM (inactive) | 24 µM (inactive) |  | 33.7 µM (inactive)
5 | CCOC(=O)c1nn2c(nc1=O)sc1ccc3ccccc3c12 | > 100 µM (inactive) | > 100 µM (inactive) | > 100 µM | > 100 µM (inactive) | > 100 µM (inactive) | > 100 µM (inactive) | > 100 µM (inactive) | > 100 µM (inactive) | > 100 µM (inactive) | > 100 µM (inactive) | > 100 µM (inactive) | > 100 µM (inactive) | > 100 µM (inactive) | > 100 µM (inactive) | > 100 µM (inactive) | > 100 µM (inactive) | > 100 µM (inactive) | > 100 µM (inactive)
6 | O=C(NC(=O)c1cc2cc(Br)cc(Br)c2oc1=O)Oc1ccccc1 | 45.3 µM (inactive) | > 100 µM (inactive) | > 100 µM |  | > 100 µM (inactive) | > 100 µM (inactive) | 63.2 µM (inactive) | > 100 µM (inactive) | > 100 µM (inactive) | 28.2 µM (inactive) | > 100 µM (inactive) | 37 µM (inactive) | 61.2 µM (inactive) | 59.8 µM (inactive) | 50.7 µM (inactive) | > 100 µM (inactive) | 43 µM (inactive) | 
7 | COc1ccc(C2S/C(=C\c3ccccc3)C(=O)N2NC(=O)Cc2ccccc2)cc1 (configuration not stated) | > 100 µM (inactive) |  | 40.7 µM | 55.8 µM (inactive) | > 100 µM (inactive) | > 100 µM (inactive) | > 100 µM (inactive) | > 100 µM (inactive) |  | > 100 µM (inactive) | > 100 µM (inactive) | > 100 µM (inactive) | > 100 µM (inactive) |  | > 100 µM (inactive) | > 100 µM (inactive) | > 100 µM (inactive) | 68.5 µM (inactive)
8 | Cc1cccc(C(C)(C)C)c1NC(=O)CC1C(=O)Nc2ccccc2S1(=O)=O (configuration not stated) | 10 µM (inactive) | 2.87 µM (inactive) | 4.76 µM | 3.25 µM (inactive) | 11.5 µM (inactive) | 5.25 µM (inactive) | 5.98 µM (inactive) | 11 µM (inactive) | 5.55 µM (inactive) | 13.4 µM (inactive) | 11.2 µM (inactive) |  | 12.3 µM (inactive) | 15.5 µM (inactive) | 5.06 µM (inactive) | 11.2 µM (inactive) | 16.8 µM (inactive) | 3.21 µM (inactive)
9 | COC(=O)[C@H]1COC(=S)N1C(=O)[C@@H](C)[C@H](O)C(C)C | > 100 µM (inactive) | > 100 µM (inactive) | > 100 µM | > 100 µM (inactive) | > 100 µM (inactive) | > 100 µM (inactive) | 57.4 µM (inactive) | > 100 µM (inactive) | > 100 µM (inactive) | > 100 µM (inactive) | > 100 µM (inactive) | > 100 µM (inactive) | > 100 µM (inactive) | > 100 µM (inactive) | > 100 µM (inactive) | > 100 µM (inactive) | > 100 µM (inactive) | > 100 µM (inactive)
10 | O=C(CCc1nnc(S)[nH]1)Nc1cc(Cl)ccc1Cl | > 100 µM (inactive) | > 100 µM (inactive) | > 100 µM | > 100 µM (inactive) | > 100 µM (inactive) | > 100 µM (inactive) |  | > 100 µM (inactive) | > 100 µM (inactive) |  | > 100 µM (inactive) | > 100 µM (inactive) | > 100 µM (inactive) | > 100 µM (inactive) | > 100 µM (inactive) | > 100 µM (inactive) | > 100 µM (inactive) | > 100 µM (inactive)
11 | COC(=O)C(C(=O)C(=O)Nc1ccc(N)cc1[N+](=O)[O-])c1nc2ccc(Cl)cc2nc1O (configuration not stated) | > 100 µM (inactive) | > 100 µM (inactive) | > 100 µM | > 100 µM (inactive) | 52.7 µM (inactive) | > 100 µM (inactive) | > 100 µM (inactive) | > 100 µM (inactive) | 74.8 µM (inactive) | 60.7 µM (inactive) | 72.9 µM (inactive) | > 100 µM (inactive) | > 100 µM (inactive) | > 100 µM (inactive) | > 100 µM (inactive) | 41 µM (inactive) | > 100 µM (inactive) | 
12 | C[C@]12CCc3nonc3C1CC[C@@H]1C2CC[C@]2(C)NC(=O)CCC12 (some centres not stated) | > 100 µM (inactive) | > 100 µM (inactive) | > 100 µM | > 100 µM (inactive) | > 100 µM (inactive) | > 100 µM (inactive) | > 100 µM (inactive) | > 100 µM (inactive) | > 100 µM (inactive) | > 100 µM (inactive) | > 100 µM (inactive) | > 100 µM (inactive) | > 100 µM (inactive) | > 100 µM (inactive) | > 100 µM (inactive) | > 100 µM (inactive) | > 100 µM (inactive) | 
13 | O=C(CC1Sc2ccccc2NC1=O)Nc1cc(Cl)ccc1Cl (configuration not stated) | > 100 µM (inactive) | > 100 µM (inactive) | > 100 µM | > 100 µM (inactive) | > 100 µM (inactive) | > 100 µM (inactive) | > 100 µM (inactive) | > 100 µM (inactive) | > 100 µM (inactive) | > 100 µM (inactive) | > 100 µM (inactive) |  | > 100 µM (inactive) | > 100 µM (inactive) | > 100 µM (inactive) | > 100 µM (inactive) | > 100 µM (inactive) | 27.3 µM (inactive)
14 | COC(=O)C(c1n[nH]c2ccccc12)C(C(=O)OC)c1n[nH]c2ccccc12 (configuration not stated) | 44.9 µM (inactive) | > 100 µM (inactive) | > 100 µM | 16 µM (inactive) |  | 64.4 µM (inactive) | 68.2 µM (inactive) | 58.3 µM (inactive) | 41.8 µM (inactive) | 24.9 µM (inactive) | > 100 µM (inactive) | > 100 µM (inactive) | 31.1 µM (inactive) | > 100 µM (inactive) | 61.1 µM (inactive) | > 100 µM (inactive) |  | 30.4 µM (inactive)
15 | Nc1ccc(C(c2ccccc2)(c2ccccc2)c2ccccc2)cc1 | 48.2 µM (inactive) | 27.2 µM (inactive) | 78.7 µM | 26.8 µM (inactive) | 14 µM (inactive) | 45.5 µM (inactive) | 47.6 µM (inactive) | 28.8 µM (inactive) | 64.6 µM (inactive) | 10.3 µM (inactive) | 99.3 µM (inactive) | 17.6 µM (inactive) | 66.5 µM (inactive) |  | 16.5 µM (inactive) |  |  | 36.6 µM (inactive)
16 | O=C1c2ccccc2-c2ccccc2C(=O)C1(Br)Br | 13 µM (inactive) | 14.6 µM (inactive) | 12.4 µM | 2.15 µM (inactive) | 3.21 µM (inactive) | 15.4 µM (inactive) | 9.27 µM (inactive) | 19.1 µM (inactive) | 14.1 µM (inactive) | 3.56 µM (inactive) | 14.2 µM (inactive) | 19.5 µM (inactive) | 11.8 µM (inactive) | 17.7 µM (inactive) | 7.36 µM (inactive) | 14.4 µM (inactive) | 5.87 µM (inactive) | 2.02 µM (inactive)
17 | COc1ccc2c(c1)CN1CCc3c(cc(OC)c(OC)c3OC)C1C2 (configuration not stated) | > 100 µM (inactive) | > 100 µM (inactive) | > 100 µM | 41.5 µM (inactive) | > 100 µM (inactive) | 68.5 µM (inactive) |  |  | > 100 µM (inactive) | > 100 µM (inactive) | > 100 µM (inactive) | > 100 µM (inactive) | > 100 µM (inactive) | > 100 µM (inactive) | 74.1 µM (inactive) | > 100 µM (inactive) | > 100 µM (inactive) | > 100 µM (inactive)
